# Entries after “also recorded” stand apart in the source; their conditions may differ. Bridge positions count the residues as written; N and C are the ends. Ends that are not written are not given here.
# Test system: osteoclast precursors
# Assay: Osteoclast differentiation by RANKL, TRAP assay and count of TRAP-positive multinucleated cells
# Assay type: cell-based, rat
# Settings: RANKL-induced differentiation, peptides treated by concentrations, TRAP assay, FIGS. 6B and 7
# Experimental: That is, osteoclast precursors of rats were extracted from tibia and the femoral region of 5 to 8-week male rats, and purified. The osteoclast precursors were cultured in α-MEM containing 30 ng/ml of M-CSF and 10% FBS in 96-well plates (1×10^5/ml, 200 μl/well). The cells were cultured at 37° C. in a wet atmosphere containing 5% CO2. Differentiation of the osteoclast precursors were measured by a value of tartrate-resistant acid phosphatase (TRAP) activity in vitro. The TRAP staining assay was performed using a matrix Naphthol AS phosphate in 100 mM sodium acetate (pH 5.2). TRAP-positive multinucleated cells were calculated as osteoclast-like multinucleated cells using a microscope, and the assay described above were repeated three times to obtain statistical data.
# In the condition of differentiating osteoclasts by the RANKL, 5 peptides (L3-3, L3-3S, L3-3N, L3-3A, and L3-3B) manufactured in Example 5 were treated by concentrations to observe a degree of inhibition, and the results are shown in FIGS. 6 and 7.
substance,measurement,value
Ser-Asp-Cys-Glu-Cys-Ser-Arg-Arg (SDCECSRR; disulfide 3-5) [L3-3B],inhibitory effect on osteoclast differentiation,better effects than conventionally disclosed peptides (L3-3 and L3-3S); also recorded: extraordinarily higher inhibitory effect than L3-3A

# Source: patent publication US9085642B2, “Peptide inhibiting rankl-rank interaction and the use thereof” (RESEARCH & BUSINESS FOUNDATION SUNGKYUNKWAN UNIVERSITY, priority 2013, dated 2015)
